One series concerns the target Cyclophilin A (CypA) (Homo sapiens, UniProt P62937). Nature of the series: Fluorescence polarization cyclophilin A binding assay. In general terms: Fluorescence polarisation rises when a labelled molecule tumbles more slowly, as on binding a larger partner.
The subject of series [1] is mitochondrial permeability transition pore (mPTP). Nature of the series: Calcium retention capacity (CRC) assay in isolated liver mitochondria. It is filed as biochemical, rat. The note with it: Table S4 / Fig. S2; rat liver mitochondria; 500 nM; (Treated-NonTreated)/NonTreated)*100.
A further series addresses hERG (Homo sapiens, UniProt Q12809). Nature of the series: hERG inhibition. The note with it: for inhibition at 25 µM: hERG (% inhibition at 25 μM). It is filed as biochemical.
A short description of series [2]: Pharmacokinetic study, plasma and brain levels by LC-MS/MS.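 As to all read-outs here: ABH mice, four per group, dosed intraperitoneally, plasma and brain taken at set times after euthanasia, drug levels quantified by LC-MS/MS.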 The note with it: mice; for level at 1 h / level at 4 h: ABH, mouse, ip.
Procedure: (§1) The remaining five compounds were evaluated for plasma and brain levels in a pharmacokinetic experiment in mice.
Pharmacokinetic analysis.
(Cyprotex UK) using LCMSMS.
Another series concerns the target CypD (Homo sapiens, UniProt P30405). Nature of the series: Fluorescence polarization cyclophilin D binding assay.
Series [3] is described as follows: Hepatocyte clearance (mouse). It is filed as in vitro ADME. To be noted: mouse hepatocytes.
A further series can be described thus: in vivo. To be noted: ABH, mouse, ip, 10 mg/kg; for level at 24 h: Brain concentrations at 24 hours.
For series [4] the following is noted: mouse, in vivo, ip, 10 mg/kg.
Procedure: as §1
Pharmacokinetic analysis.
(Cyprotex UK) using LCMSMS.
The conditions of series [5]: mouse, in vivo, ip, 10 mg/kg. This is another data set of the same source.
Procedure: as §1
Pharmacokinetic analysis.
(Cyprotex UK) using LCMSMS.
Series [6] is described as follows: Hepatocyte clearance (human). It is filed as in vitro ADME. The note with it: human hepatocytes.
Series [7] can be described thus: Plasma protein binding (fraction unbound). It is filed as in vitro ADME. To be noted: read-out: Plasma protein (fu).
[8] abbreviates: Table S3, 4-aza substituted quinolinium salts, fluorescence polarization, read-out: Ki (nM) CypA.
[9] abbreviates: Table S7, focused SAR set, read-out: CypD Ki.
Where [10] appears, read: Table S7, focused SAR set, read-out: CypA Ki.
The mark [11] stands for this setting: Table S2, 4-oxa substituted and O-linked quinolinium salts, fluorescence polarization, read-out: Ki (nM), Cyclophilin A binding affinity.

Where two headings read alike, the source gives them in different places.

CypD, sequence (P30405 30-207): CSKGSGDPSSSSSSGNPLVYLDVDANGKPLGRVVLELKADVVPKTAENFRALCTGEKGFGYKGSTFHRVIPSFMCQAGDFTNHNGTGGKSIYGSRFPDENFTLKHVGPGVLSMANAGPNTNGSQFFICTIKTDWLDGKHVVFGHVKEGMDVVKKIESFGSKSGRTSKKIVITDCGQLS
hERG, sequence (Q12809 whole entry): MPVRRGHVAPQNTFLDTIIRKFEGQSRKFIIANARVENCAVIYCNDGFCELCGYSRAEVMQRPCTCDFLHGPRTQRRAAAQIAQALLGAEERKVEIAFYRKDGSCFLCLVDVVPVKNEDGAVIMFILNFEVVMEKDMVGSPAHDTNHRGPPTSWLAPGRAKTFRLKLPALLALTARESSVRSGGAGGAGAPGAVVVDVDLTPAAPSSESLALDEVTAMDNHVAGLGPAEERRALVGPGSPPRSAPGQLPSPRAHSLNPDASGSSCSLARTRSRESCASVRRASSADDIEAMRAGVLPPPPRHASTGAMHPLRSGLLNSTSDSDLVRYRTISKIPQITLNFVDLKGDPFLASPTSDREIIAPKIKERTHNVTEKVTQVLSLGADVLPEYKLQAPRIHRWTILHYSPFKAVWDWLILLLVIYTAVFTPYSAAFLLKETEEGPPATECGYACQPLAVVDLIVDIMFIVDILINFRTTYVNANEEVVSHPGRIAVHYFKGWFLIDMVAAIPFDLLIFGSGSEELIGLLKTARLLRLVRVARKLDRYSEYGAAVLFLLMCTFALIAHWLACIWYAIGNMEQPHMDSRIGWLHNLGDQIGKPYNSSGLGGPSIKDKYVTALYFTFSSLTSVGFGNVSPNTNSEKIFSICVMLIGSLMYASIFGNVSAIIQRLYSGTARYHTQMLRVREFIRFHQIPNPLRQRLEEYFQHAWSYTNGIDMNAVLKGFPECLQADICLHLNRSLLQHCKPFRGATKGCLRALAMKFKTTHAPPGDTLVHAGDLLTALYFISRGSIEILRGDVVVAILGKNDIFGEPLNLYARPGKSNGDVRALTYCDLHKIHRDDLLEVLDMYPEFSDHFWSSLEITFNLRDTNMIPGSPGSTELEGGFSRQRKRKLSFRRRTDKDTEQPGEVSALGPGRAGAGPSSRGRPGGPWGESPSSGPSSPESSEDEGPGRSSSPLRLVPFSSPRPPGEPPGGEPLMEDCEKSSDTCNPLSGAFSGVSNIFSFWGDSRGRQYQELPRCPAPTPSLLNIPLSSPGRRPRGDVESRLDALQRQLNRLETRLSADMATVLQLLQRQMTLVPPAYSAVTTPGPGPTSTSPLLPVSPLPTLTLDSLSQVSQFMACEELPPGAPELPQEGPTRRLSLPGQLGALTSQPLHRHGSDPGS
Cyclophilin A (CypA), sequence (P62937 whole entry): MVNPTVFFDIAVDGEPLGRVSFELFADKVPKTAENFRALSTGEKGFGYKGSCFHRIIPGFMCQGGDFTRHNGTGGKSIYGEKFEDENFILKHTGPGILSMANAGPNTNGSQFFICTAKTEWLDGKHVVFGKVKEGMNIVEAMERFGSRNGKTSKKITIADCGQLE
Procedure for Cyclophilin A (CypA): (§2) This was determined using a fluorescence polarization assay ([12]).
Fluorescence Polarization assay.
(§3) Briefly, titration of a single probe concentration
measure binding affinities.
FP -probe. Enzyme, inhibitor and
(ph7.4)) supplemented with 1 mM PMSF.
Procedure for CypD: as §2
Fluorescence Polarization assay.
as §3
measure binding affinities.
Procedure for in vivo: as §1
Pharmacokinetic analysis.
(Cyprotex UK) using LCMSMS.

`CC[C@@H]1NC(=O)[C@H]([C@H](O)[C@H](C)CC=CCCC[n+]2ccc(N(C)Cc3ccccc3)c3ccccc32)N(C)C(=O)[C@H](C(C)C)N(C)C(=O)[C@H](CC(C)C)N(C)C(=O)[C@H](CC(C)C)N(C)C(=O)[C@@H](C)NC(=O)[C@H](C)NC(=O)[C@H](CC(C)C)N(C)C(=O)[C@H](C(C)C)NC(=O)[C@H](CC(C)C)N(C)C(=O)CN(C)C1=O` [JP1-028]: the Ki at Cyclophilin A (CypA) (setting [8]) was 35 ± 3 nM.

With `CC[C@@H]1NC(=O)[C@H]([C@H](O)[C@H](C)CC=CCCC[n+]2ccc(NCCc3ccccc3)c3ccccc32)N(C)C(=O)[C@H](C(C)C)N(C)C(=O)[C@H](CC(C)C)N(C)C(=O)[C@H](CC(C)C)N(C)C(=O)[C@@H](C)NC(=O)[C@H](C)NC(=O)[C@H](CC(C)C)N(C)C(=O)[C@H](C(C)C)NC(=O)[C@H](CC(C)C)N(C)C(=O)CN(C)C1=O` [JP1-037H], the Ki at Cyclophilin A (CypA) (setting [8]) turned out to be 17 ± 5 nM. In addition, the CRC inhibition % in series [1] is given as 26.53%.

With `CC[C@@H]1NC(=O)[C@H]([C@H](O)[C@H](C)CC=CCCC[n+]2ccc(N(C)CCc3ccccc3)c3ccccc32)N(C)C(=O)[C@H](C(C)C)N(C)C(=O)[C@H](CC(C)C)N(C)C(=O)[C@H](CC(C)C)N(C)C(=O)[C@@H](C)NC(=O)[C@H](C)NC(=O)[C@H](CC(C)C)N(C)C(=O)[C@H](C(C)C)NC(=O)[C@H](CC(C)C)N(C)C(=O)CN(C)C1=O` [JP1-037], the Ki on Cyclophilin A (CypA) (setting [8]) turned out to be 4.4 ± 2 nM. In addition, in series [1], the CRC inhibition % came to 20.61%.

In the case of `CC[C@@H]1NC(=O)[C@H]([C@H](O)[C@H](C)C/C=C/CCC[n+]2ccc(NCCOc3ccccc3)c3ccccc32)N(C)C(=O)[C@H](C(C)C)N(C)C(=O)[C@H](CC(C)C)N(C)C(=O)[C@H](CC(C)C)N(C)C(=O)[C@@H](C)NC(=O)[C@H](C)NC(=O)[C@H](CC(C)C)N(C)C(=O)[C@H](C(C)C)NC(=O)[C@H](CC(C)C)N(C)C(=O)CN(C)C1=O` [JP1-068], the Ki on Cyclophilin A (CypA) (setting [8]) was 10 nM; at CypD (Table S3, fluorescence polarization, biotinylated-CsA probe, read-out: Ki (nM) CypD) it was 38.1 nM. In addition, the half-inhibitory concentration (IC50) on hERG fell in the range of 1000 to 2000 nM. The level at 1 h in [2] (brain, Brain ng/mL, 1 h) is 110 ng/mL; in series [2] (plasma, Plasma (ng/mL), 1 h), 6410 ng/mL. Besides, the level at 4 h in [2] (brain, Brain ng/mL) was determined as 76 ng/mL; in series [2] (plasma, Plasma (ng/mL)) it was 6250 ng/mL. Further, the “Brain” value in series [2] (1 h) amounted to 110 ng/mL.

For `CC[C@@H]1NC(=O)[C@H]([C@H](O)[C@H](C)CC=CCCC[n+]2ccc(N3CCCC3)c3ccc(C(F)(F)F)cc32)N(C)C(=O)[C@H](C(C)C)N(C)C(=O)[C@H](CC(C)C)N(C)C(=O)[C@H](CC(C)C)N(C)C(=O)[C@@H](C)NC(=O)[C@H](C)NC(=O)[C@H](CC(C)C)N(C)C(=O)[C@H](C(C)C)NC(=O)[C@H](CC(C)C)N(C)C(=O)CN(C)C1=O` [JP1-140], the Ki at CypD (setting [9]) worked out at 76 ± 8 nM.

Consider `CC[C@@H]1NC(=O)[C@H]([C@H](O)[C@H](C)CC=CCCC[n+]2ccc(N3CCCC3)c3ccccc32)N(C)C(=O)[C@H](C(C)C)N(C)C(=O)[C@H](CC(C)C)N(C)C(=O)[C@H](CC(C)C)N(C)C(=O)[C@@H](C)NC(=O)[C@H](C)NC(=O)[C@H](CC(C)C)N(C)C(=O)[C@H](C(C)C)NC(=O)[C@H](CC(C)C)N(C)C(=O)CN(C)C1=O` [JP1-159], for which, at Cyclophilin A (CypA) (setting [10]), the Ki is 104 nM.

Consider `CC[C@@H]1NC(=O)[C@H]([C@H](O)[C@H](C)C/C=C/CCC[n+]2ccc(N3CCCCC3)c3ccccc32)N(C)C(=O)[C@H](C(C)C)N(C)C(=O)[C@H](CC(C)C)N(C)C(=O)[C@H](CC(C)C)N(C)C(=O)[C@@H](C)NC(=O)[C@H](C)NC(=O)[C@H](CC(C)C)N(C)C(=O)[C@H](C(C)C)NC(=O)[C@H](CC(C)C)N(C)C(=O)CN(C)C1=O` [JP1-166], for which the Ki on Cyclophilin A (CypA) (setting [10]) stood at 31 ± 3 nM. Moreover, in [3], the intrinsic clearance (hepatocyte CLint) came out at 9.47 µL/min/1e6 cells. In “in vivo”, this compound showed a level at time molar at 24 h of 86 nM and a level at 24 h of 124 ng/mL. Also, the inhibition at 25 µM at hERG was determined as 31.4%. In addition, in series [4], the area under the curve AUC(0-inf) was determined as 59900 ng·h/mL, the AUC(0-t) amounted to 55000 ng·h/mL and the half-life is 6.75 h. Further, in series [5], the Cl_obs is 1.67 × 10^−04 (mg/kg)/(ng/ml).hour. Besides, the hepatocyte CLint in series [6] is 8.01 µL/min/1e6 cells. For the same compound, the fraction unbound in series [7] was 0.43.

In series [3], `CC[C@@H]1NC(=O)[C@H]([C@H](O)[C@H](C)C/C=C/CCC[n+]2ccc(N(C)C)c3ccccc32)N(C)C(=O)[C@H](C(C)C)N(C)C(=O)[C@H](CC(C)C)N(C)C(=O)[C@H](CC(C)C)N(C)C(=O)[C@@H](C)NC(=O)[C@H](C)NC(=O)[C@H](CC(C)C)N(C)C(=O)[C@H](C(C)C)NC(=O)[C@H](CC(C)C)N(C)C(=O)CN(C)C1=O` [JP1-180] displayed a hepatocyte CLint of 4.07 µL/min/1e6 cells. In addition, in “in vivo”, the level at time molar at 24 h was found to be 142 nM and the level at 24 h amounted to 196 ng/mL. At hERG, this compound yielded an inhibition at 25 µM of 9.75%. Further, in [4], the total exposure AUC(0-inf) was determined as 62100 ng·h/mL, the AUC(0-t) was determined as 59300 ng·h/mL and the half-life was 5.06 h. The Cl_obs in series [5] is 1.61 × 10^−04 (mg/kg)/(ng/ml).hour. In series [6], this compound had a hepatocyte CLint of 4.65 µL/min/1e6 cells. Besides, in series [7], the fraction unbound was determined as 0.17. The inhibition constant Ki at CypD (setting [9]) was 77 ± 46 nM.

Turning to `CC[C@@H]1NC(=O)[C@H]([C@H](O)[C@H](C)C/C=C/CCC[n+]2cccc3ccccc32)N(C)C(=O)[C@H](C(C)C)N(C)C(=O)[C@H](CC(C)C)N(C)C(=O)[C@H](CC(C)C)N(C)C(=O)[C@@H](C)NC(=O)[C@H](C)NC(=O)[C@H](CC(C)C)N(C)C(=O)[C@H](C(C)C)NC(=O)[C@H](CC(C)C)N(C)C(=O)CN(C)C1=O` [JW47, reference compound], the level at 4 h in series [2] (plasma, Plasma (ng/mL)) came to 4900 ng/mL.

As to `CC[C@@H]1NC(=O)[C@H]([C@H](O)[C@H](C)CC=CCCC[n+]2ccc(OCCc3ccccc3)c3ccccc32)N(C)C(=O)[C@H](C(C)C)N(C)C(=O)[C@H](CC(C)C)N(C)C(=O)[C@H](CC(C)C)N(C)C(=O)[C@@H](C)NC(=O)[C@H](C)NC(=O)[C@H](CC(C)C)N(C)C(=O)[C@H](C(C)C)NC(=O)[C@H](CC(C)C)N(C)C(=O)CN(C)C1=O` [TWH30], the inhibition constant (Ki) at Cyclophilin A (CypA) (setting [11]) turned out to be 267 ± 16 nM. In series [1], the CRC inhibition % came out at 27.89%.

Take `CC[C@@H]1NC(=O)[C@H]([C@H](O)[C@H](C)CC=CCCCOc2cc[n+](CCCc3ccccc3)c3ccccc23)N(C)C(=O)[C@H](C(C)C)N(C)C(=O)[C@H](CC(C)C)N(C)C(=O)[C@H](CC(C)C)N(C)C(=O)[C@@H](C)NC(=O)[C@H](C)NC(=O)[C@H](CC(C)C)N(C)C(=O)[C@H](C(C)C)NC(=O)[C@H](CC(C)C)N(C)C(=O)CN(C)C1=O` [TWH43]: the inhibitory constant (Ki) on Cyclophilin A (CypA) (setting [11]) was 218 ± 57 nM. Besides, the CRC inhibition % in series [1] turned out to be 16.28%.

For the compound `CC[C@@H]1NC(=O)[C@H]([C@H](O)[C@H](C)CC=CCCC[n+]2ccc(OCCCc3ccc(OC)cc3)c3ccccc32)N(C)C(=O)[C@H](C(C)C)N(C)C(=O)[C@H](CC(C)C)N(C)C(=O)[C@H](CC(C)C)N(C)C(=O)[C@@H](C)NC(=O)[C@H](C)NC(=O)[C@H](CC(C)C)N(C)C(=O)[C@H](C(C)C)NC(=O)[C@H](CC(C)C)N(C)C(=O)CN(C)C1=O` [TWH44], the inhibition constant Ki at Cyclophilin A (CypA) (setting [11]) is 158 ± 17 nM. Moreover, the CRC inhibition % in series [1] amounted to 16.95%.

In the case of `CC[C@@H]1NC(=O)[C@H]([C@H](O)[C@H](C)C/C=C/CCCOc2cc[n+](CCc3ccccc3)c3ccccc23)N(C)C(=O)[C@H](C(C)C)N(C)C(=O)[C@H](CC(C)C)N(C)C(=O)[C@H](CC(C)C)N(C)C(=O)[C@@H](C)NC(=O)[C@H](C)NC(=O)[C@H](CC(C)C)N(C)C(=O)[C@H](C(C)C)NC(=O)[C@H](CC(C)C)N(C)C(=O)CN(C)C1=O` [TWH46], at Cyclophilin A (CypA) (setting [11]), the inhibitory constant (Ki) is 265 ± 111 nM.

Turning to `CC[C@@H]1NC(=O)[C@H]([C@H](O)[C@H](C)CC=CCCC[n+]2ccc(OCc3ccccc3)c3ccccc32)N(C)C(=O)[C@H](C(C)C)N(C)C(=O)[C@H](CC(C)C)N(C)C(=O)[C@H](CC(C)C)N(C)C(=O)[C@@H](C)NC(=O)[C@H](C)NC(=O)[C@H](CC(C)C)N(C)C(=O)[C@H](C(C)C)NC(=O)[C@H](CC(C)C)N(C)C(=O)CN(C)C1=O` [TWH53], the Ki on Cyclophilin A (CypA) (setting [11]) amounted to 158 ± 43 nM. The CRC inhibition % in [1] is 18.46%.

In the case of `CC[C@@H]1NC(=O)[C@H]([C@H](O)[C@H](C)CC=CCCC[n+]2ccc(OCCOc3ccccc3)c3ccccc32)N(C)C(=O)[C@H](C(C)C)N(C)C(=O)[C@H](CC(C)C)N(C)C(=O)[C@H](CC(C)C)N(C)C(=O)[C@@H](C)NC(=O)[C@H](C)NC(=O)[C@H](CC(C)C)N(C)C(=O)[C@H](C(C)C)NC(=O)[C@H](CC(C)C)N(C)C(=O)CN(C)C1=O` [TWH68], the inhibition constant Ki on Cyclophilin A (CypA) (setting [11]) amounted to 467 ± 85 nM. Also, the CRC inhibition % in series [1] is on record as 17.71%.

As usually defined, the Ki is the equilibrium dissociation constant of an inhibitor or competing ligand from its target. In general, IC50 refers to the point on the concentration scale where inhibition reaches its midpoint. Read a high IC50 as a need for much substance. As usually defined, the hepatocyte CLint is the rate of metabolic loss divided by the concentration. A higher hepatocyte CLint goes with rapid turnover. Broadly, the inhibition is the share of the control response that was lost under treatment. The low end stands for a response near the control, the high end for a response far below the control. The term AUC(0-inf) denotes the area under the concentration-time curve extrapolated to infinity. Lower therefore signals less exposure. What is called AUC(0-t) is the area under the concentration-time curve up to a stated or last time point. For orientation: half-life means the time in which the quantity being followed falls by half. The low end stands for fast loss, the high end for slow loss.

Source of the values: PMC11235165, “Delocalized quinolinium-macrocyclic peptides, an atypical chemotype for CNS penetration” (Science Advances, 2024).
